This is an account of results in US20230011571A1, “SMALL MOLECULE FURIN INHIBITORS FOR TREATING INFECTIOUS DISEASES” (BP Asset V, Inc., priority 2019, published 2023).

Molecules are shown by their SMILES.

Holding throughout (assay type): cell-based
Assay [1] has as its system Chikungunya virus (CHIKV). As to the kind of experiment: microbe, parasite or virus in culture. The following applies: Chikungunya virus, Vero, 48 h, read-out: Percent viral inhibition CHKV.
The test system of a further assay is Marburg virus (MARV). The experiment in a line: organism not typed. The conditions noted are these: Vero, 72 h, read-out: Percent viral inhibition MARV.
A further assay has as its system dengue virus (DENV). The experiment in a line: microbe, parasite or virus in culture. The following applies: Dengue virus, Vero, 120 h, read-out: Percent viral inhibition DENY.

The inhibition is the relative decrease from the control value, in per cent. On to `CC(=O)NCC1CCN(Cc2cc(Oc3cnc(N4CCN(C(C)CCS(C)(=O)=O)CC4)nc3)nc(-c3cc(F)cc(Cl)c3)c2)CC1` (stereo not drawn) [Example 372, N-((1-((2-(3-chloro-5-fluorophenyl)-6-((2-(4-(4-(methylsulfonyl)butan-2-yl)piperazin-1-yl)pyrimidin-5-yl)oxy)pyridin-4-yl)methyl)piperidin-4-yl)methyl)acetamide], for which the inhibition at 1 µM was determined as 18.2% in assay [1], 45.3% in the assay on Marburg virus (MARV) and 81.8% in the assay on dengue virus (DENV).
For `O=C(O)CC1CCN(Cc2cc(Oc3ccc(N4CCN5CCC4C5)nn3)nc(-c3cc(Cl)cc(Cl)c3)c2)CC1` (stereo not drawn) [Example 344, 2-(1-((2-((6-(1,4-diazabicyclo[3.2.1]octan-4-yl)pyridazin-3-yl)oxy)-6-(3,5-dichlorophenyl)pyridin-4-yl)methyl)piperidin-4-yl)acetic acid], in that order: 26.6%, 43.5% and 77.9%.
For `CC(=O)NCC1CCN(Cc2cc(Oc3cnc(N4CCN(CCC(N)=O)CC4)cn3)nc(-c3cc(Cl)cc(Cl)c3)c2)CC1` [Example 391] the same measures were 14%, 35.4% and 51.4%.
For `O=C(O)CC1CCN(Cc2cc(Oc3cnc(N4CCN(C5CC(O)C5)CC4)nc3)nc(-c3cc(Cl)cc(Cl)c3)c2)CC1` (stereo not drawn) [Example 22, 2-(1-((2-(3,5-dichlorophenyl)-6-((2-(4-(3-hydroxycyclobutyl)piperazin-1-yl)pyrimidin-5-yl)oxy)pyridin-4-yl)methyl)piperidin-4-yl)acetic acid], in that order: 26.8%, 52.5% and 64.4%.
`C[C@H](CC1CCN(Cc2cc(Oc3ccc(N4CCN(C)CC4)nn3)nc(-c3cc(Cl)cc(Cl)c3)c2)CC1)C(=O)O` [Example 364, (R)-3-(1-((2-(3,5-dichlorophenyl)-6-((6-(4-methylpiperazin-1-yl)pyridazin-3-yl)oxy)pyridin-4-yl)methyl)piperidin-4-yl)-2-methylpropanoic acid]: the figures for the inhibition at 1 µM (in assay [1]; in the assay on Marburg virus (MARV); with dengue virus (DENV)) were 31.4%, 47.6% and 40%, respectively.
For `CC(=O)NCC1CCN(Cc2cc(Oc3cnc(N4CCCNCC4)nc3)nc(-c3cc(Cl)cc(Cl)c3)c2)CC1` [Example 118, N-((1-((2-((2-(1,4-diazepan-1-yl)pyrimidin-5-yl)oxy)-6-(3,5-dichlorophenyl)pyridin-4-yl)methyl)piperidin-4-yl)methyl)acetamide], in that order: 0%, 0% and 15.6%.
As for `CN1CCCN(c2ncc(Oc3cc(CN4CCC(OCC(=O)O)CC4)cc(-c4cc(Cl)cc(Cl)c4)n3)cn2)CC1` [Example 140, 2-((1-((2-(3,5-dichlorophenyl)-6-((2-(4-methyl-1,4-diazepan-1-yl)pyrimidin-5-yl)oxy)pyridin-4-yl)methyl)piperidin-4-yl)oxy)acetic acid], the inhibition at 1 µM in assay [1] is 32.7%; with Marburg virus (MARV), 51.5%; in the assay with dengue virus (DENV), 14.1%.
For `CC(O)CCN1CCN(c2cnc(Oc3cc(CN4CCC(CC(=O)O)CC4)cc(-c4cc(Cl)cc(Cl)c4)n3)cn2)CC1` (stereo not drawn) [Example 349, 2-(1-((2-(3,5-dichlorophenyl)-6-((5-(4-(3-hydroxybutyl)piperazin-1-yl)pyrazin-2-yl)oxy)pyridin-4-yl)methyl)piperidin-4-yl)acetic acid], in that order: 26.2%, 64.5% and 57.6%.
For `CC(=O)NCC1CCN(Cc2cc(Oc3cnc(N4CCN(CCC(N)=O)CC4)nc3)cc(-c3cc(Cl)cc(Cl)c3)c2)CC1` [Example 170, 3-(4-(5-((5-((4-(acetamidomethyl)piperidin-1-yl)methyl)-3′,5′-dichloro-[1,1′-biphenyl]-3-yl)oxy)pyrimidin-2-yl)piperazin-1-yl)propanamide], in that order: 7.29%, 10.3% and 57.6%.
